# Experimental data as given in article PMC6201879, “N-substituted phenylbenzamides of the niclosamide chemotype attenuate obesity related changes in high fat diet fed mice” (PLoS ONE, 2018).
# Like-named read-outs stand apart in the source and are kept apart here.
# Key:
# [1] = Pharmacokinetic profile in Sprague Dawley rats (IV and PO); format: in vivo; conditions: Mean + SD (n = 3)
# Procedure: To evaluate the pharmacokinetic profile by oral (PO) and intravenous (IV) administration routes we used 6 to 8-week old Sprague Dawley rats weighing approximately 200-330g (n = 3 per study group). Compounds were administered at 1mg/kg in 5% Cremophor EL and 20% PEG400 in water for IV and 5mg/kg in PBS for PO. All dose formulation was performed at room temperature. Animals were fasted overnight prior to dosing and were re-fed approximately 4 hours after dosing. For PO, 0.2ml of blood was collected pre- and 0.5, 1, 2, 4 8 12 and 24-hours after drug delivery and transferred to EDTA-K2 BD Vacutainer plastic blood collection tubes. IV samples were collected pre-injection and 0.08, 0.25, 0.5, 1, 2, 4, 8, 12, 24-hours post injection. Blood samples were centrifuged at 2,000 g for 5 minutes at 4°C to obtain plasma. Plasma samples were stored at -75±15°C prior to analysis and then thawed and analyzed by LC-MS/MS method and pharmacokinetic calculations were performed using WinNolin (Phoenix, version 6.4). For IV administration: T1/2, C0, AUClast, AUCinf, MRT, Cl, Vss, and number of points for regression were determined. For PO administration: T1/2, Cmax, Tmax, AUCinf, AUClast, F(0-∞) %, and number of points for regression were determined. Data are reported as mean and standard deviation.
# [2] = Metabolic stability in human liver microsomes; format: in vitro ADME
# Procedure: (§1) Three experiments were performed with 1) 0.5mg/ml microsomes and 1mM NADPH, 2) 0.5mg/ml microsomes without NADPH and 3) 0.5mg/ml heat inactivated microsomes without NADPH in 100mM phosphate buffer, containing 5mM magnesium chloride. […] At the indicated time points, 50μl samples were removed and stopped by addition of 4 volumes of cold acetonitrile with internal standards, 100nM alprazolam, 200nM labetalol and 2μM ketoprofen. The samples were centrifuged at 3,220 g for 40 minutes and aliquots of 100μl were subsequently diluted with 100μl of ultra-pure water and analyzed by LC/MS/MS using a (Shimadzu corporation) LC system coupled to a Shimadzu Triple Quad 5500 mass spectrometer with an ESI interface. The LC system used a Waters XSelect HSS T3 C18, 2.5μm, 2.1 x 50 mm column eluted with one of two methods using mobile phases A (water, 0.1% formic acid) and B (acetonitrile, 0.1% formic acid). […] The Shimadzu Triple Quad 5500 MS was operated with the following parameters: Ion source: Turbo spray; Ionization mode: ESI; Scan type: MRM; Collision gas: 10 L/min; Curtain gas: 30 L/min; Nebulize gas: 50 L/min; Auxiliary gas: 50 L/min; Temperature: 500°C; Ionspray voltage: +5500 V (positive MRM). All experiments were performed in duplicate. Data were analyzed using Microsoft excel, and peak areas were determined from extracted ion chromatograms.
# [3] = tested on: Salmonella typhimurium TA100; conditions: for Mean Revertant Colony Counts TA-100 SP9+: with S9; for Mean Revertant Colony Counts TA-100 S9-: without S9
# [4] = Metabolic stability in mouse liver microsomes; format: in vitro ADME
# Procedure: as §1
# [5] = tested on: Salmonella typhimurium TA98; experiment: Ames assay, strain TA98; conditions: for Mean Revertant Colony Counts TA98 SP9+: with S9; for Mean Revertant Colony Counts TA98 S9-: without S9
# [6] = tested on: HEK293 cells stably transduced with the human OCT3 transporter; experiment: Cellular oxygen consumption rate (OCR), MitoXpress Xtra; format: cell-based; conditions: HEK293 cells expressing human OCT3; compared to DMSO control; 2 hours
# Method in brief: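 HEK293 cells stably expressing human OCT3, treated with four compound concentrations; oxygen consumption followed by MitoXpress Xtra TR-F lifetime (340/650 nm) every 2 min for 2 h. Lifetime slope from the linear portion taken as OCR; FCCP (1 μM) as stimulated control, differences versus DMSO by t-test.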
smiles,measurement,setting,value
"CC(C)(C)c1ccc(O)c(C(=O)Nc2ccc(C(=O)O)cc2C(F)(F)F)c1 [Compound 500873, 4-[(5-tert-butyl-2-hydroxy)amido]-3-(trifluoromethyl)benzoic acid]",AUC _%Extrap_obs (IV),[1]; IV 1 mg/kg,0.249 +/- 0.151%
same,AUCl ast/D (IV),[1]; IV 1 mg/kg,13000 ± 3070 ng·kg·h/mL/mg
same,V ss_obs,[1]; IV 1 mg/kg,0.11 ± 0.004 L/kg
same,AUC _%Extrap_obs (PO),[1]; PO 5 mg/kg in PBS,11.14 +/- 11.6%
same,AUC last / D (PO),[1]; PO 5 mg/kg in PBS,1290 ± 817 ng·kg·h/mL/mg
same,C max,"[1]; PO 5 mg/kg in PBS, 5 mg/kg",912.33 ± 856 ng/mL
same,F (oral bioavailability),[1]; PO 5 mg/kg vs IV 1 mg/kg,10.20 +/-6.3%
same,half-life,"[1]; Sprague Dawley, rat, plasma, iv, 1 mg/kg, IV 1 mg/kg, read-out: T 1/2 (IV) (converted)",172 ± 51.6 min
same,Cmax,"[1]; Sprague Dawley, rat, plasma, po, 5 mg/kg, PO 5 mg/kg in PBS",912 ng/mL
same,bioavailability,"[1]; Sprague Dawley, rat, plasma, po, 5 mg/kg, PO 5 mg/kg vs IV 1 mg/kg, read-out: F (oral bioavailability)",10%
same,C0,"[1]; rat, plasma, IV 1 mg/kg",24100 ± 4000 ng/mL
same,AUC(0-inf),"[1]; rat, plasma, IV 1 mg/kg, read-out: AUC Inf (IV)",13000 ± 3070 ng·h/mL
same,AUC(0-t),"[1]; rat, plasma, IV 1 mg/kg, read-out: AUC last (IV)",13000 ± 3070 ng·h/mL
same,clearance,"[1]; rat, plasma, IV 1 mg/kg, read-out: Cl_obs",1.33 ± 0.31 mL/min/kg
same,MRT inf,"[1]; rat, plasma, IV 1 mg/kg, read-out: MRT Inf_obs (IV)",1.42 ± 0.29 h
same,Tmax,"[1]; rat, plasma, PO 5 mg/kg in PBS",3.33 ± 1.15 h
same,AUC(0-inf),"[1]; rat, plasma, PO 5 mg/kg in PBS, read-out: AUC Inf (PO)",6950 ± 3680 ng·h/mL
same,AUC(0-t),"[1]; rat, plasma, PO 5 mg/kg in PBS, read-out: AUC last (PO)",6430 ± 4080 ng·h/mL
same,MRT inf,"[1]; rat, plasma, PO 5 mg/kg in PBS, read-out: MRT Inf_obs (PO)",10 ± 5.6 h
same,"Remaining Percentage of 60 min (%), Human, Tested Sample",[2]; 0.5mg/ml microsomes and 1mM NADPH,64.2%
same,"Remaining Percentage of 60 min (%), Human, Negative Control",[2]; 0.5mg/ml microsomes without NADPH,97.7%
same,"Remaining Percentage of 60 min (%), Human, Heat-inactivated Control",[2]; heat inactivated microsomes without NADPH,91.1%
same,Mean Revertant Colony Counts TA-100 SP9+,[3]; 1.5 ug/Well,22.3
same,Mean Revertant Colony Counts TA-100 S9-,[3]; 1.5 ug/Well,33.0
same,Mean Revertant Colony Counts TA-100 SP9+,[3]; 4 ug/Well,18.3
same,Mean Revertant Colony Counts TA-100 S9-,[3]; 4 ug/Well,31.7
same,Mean Revertant Colony Counts TA-100 SP9+,[3]; 10 ug/Well,20.7
same,Mean Revertant Colony Counts TA-100 S9-,[3]; 10 ug/Well,28.3
same,Mean Revertant Colony Counts TA-100 SP9+,[3]; 25 ug/Well,16.7
same,Mean Revertant Colony Counts TA-100 S9-,[3]; 25 ug/Well,25.0
same,Mean Revertant Colony Counts TA-100 SP9+,[3]; 64 ug/Well,18.3
same,Mean Revertant Colony Counts TA-100 S9-,[3]; 64 ug/Well,28.7
same,Mean Revertant Colony Counts TA-100 SP9+,[3]; 160 ug/Well,22.7
same,Mean Revertant Colony Counts TA-100 S9-,[3]; 160 ug/Well,25.0
same,Mean Revertant Colony Counts TA-100 SP9+,[3]; 400 ug/Well,17.7
same,Mean Revertant Colony Counts TA-100 S9-,[3]; 400 ug/Well,21.0
same,"fold increase in the mean number of revertant colonies, TA100","[3]; any concentration tested, vs negative control",< 2 fold
same,"Remaining Percentage of 60 min (%), Mouse, Tested Sample","[4]; 0.5mg/ml microsomes and 1mM NADPH, 60 min",107.5%
same,"Remaining Percentage of 60 min (%), Mouse, Negative Control","[4]; 0.5mg/ml microsomes without NADPH, 60 min",106.4%
same,stability in MLM,[4]; 60 minutes,stable
same,"Remaining Percentage of 60 min (%), Mouse, Heat-inactivated Control","[4]; heat inactivated microsomes without NADPH, 60 min",105.5%
same,Mean Revertant Colony Counts TA98 SP9+,[5]; 1.5 ug/Well,5.7
same,Mean Revertant Colony Counts TA98 S9-,[5]; 1.5 ug/Well,5.0
same,Mean Revertant Colony Counts TA98 SP9+,[5]; 4 ug/Well,6.0
same,Mean Revertant Colony Counts TA98 S9-,[5]; 4 ug/Well,9.0
same,Mean Revertant Colony Counts TA98 SP9+,[5]; 10 ug/Well,6.3
same,Mean Revertant Colony Counts TA98 S9-,[5]; 10 ug/Well,4.0
same,Mean Revertant Colony Counts TA98 SP9+,[5]; 25 ug/Well,9.3
same,Mean Revertant Colony Counts TA98 S9-,[5]; 25 ug/Well,7.7
same,Mean Revertant Colony Counts TA98 SP9+,[5]; 64 ug/Well,8.3
same,Mean Revertant Colony Counts TA98 S9-,[5]; 64 ug/Well,11.7
same,Mean Revertant Colony Counts TA98 SP9+,[5]; 160 ug/Well,10.3
same,Mean Revertant Colony Counts TA98 S9-,[5]; 160 ug/Well,10.0
same,Mean Revertant Colony Counts TA98 SP9+,[5]; 400 ug/Well,14.0
same,Mean Revertant Colony Counts TA98 S9-,[5]; 400 ug/Well,11.7
same,Mean Revertant Colony Counts TA98 SP9+,[5]; 1000 ug/Well,16.3
same,Mean Revertant Colony Counts TA98 S9-,[5]; 1000 ug/Well,14.0
same,"fold increase in revertant colonies, TA98",[5]; 1000 μg/well in the absence of S9 mix,≥ 2 fold
same,change in respiration / oxygen consumption rate (OCR),[6],no change in respiration
